Data taken from the kinase profiling compilation of Christmann-Franck et al. (2016).

Tests used:
Assay in all cases: KINOMEscan competition binding
Details in all cases: compound 10.0 µM
[1] = biological target: ACVR2B (human) (UniProt Q13705)
[2] = biological target: AKT1 (human) (UniProt P31749)
[3] = biological target: AURKA (human) (UniProt O14965)
[4] = biological target: CAMKK1 (human) (UniProt Q8N5S9)
[5] = biological target: CAMKK2 (human) (UniProt Q96RR4)
[6] = biological target: CDK4 CCND3 (human) (UniProt P11802+P30281)
[7] = biological target: CDK8 (human) (UniProt P49336)
[8] = biological target: DMPK (human) (UniProt Q09013)
[9] = biological target: DYRK1A (human) (UniProt Q13627)
[10] = biological target: DYRK2 (human) (UniProt Q92630)
[11] = test system: EGFR (human), P00533 [752-759 del]
[12] = biological target: ERBB2 (human) (UniProt P04626)
[13] = test system: FLT3 (human), P36888 [D835Y]
[14] = biological target: FLT4 (human) (UniProt P35916)
[15] = biological target: GRK1 (human) (UniProt Q15835)
[16] = biological target: GRK4 (human) (UniProt P32298)
[17] = biological target: JAK1 JH2 pseudokinase (human) (UniProt P23458)
[18] = biological target: LATS1 (human) (UniProt O95835)
[19] = biological target: MAP3K1 (human) (UniProt Q13233)
[20] = biological target: MAP3K5 (human) (UniProt Q99683)
[21] = biological target: MAPK11 (human) (UniProt Q15759)
[22] = biological target: MAPK13 (human) (UniProt O15264)
[23] = biological target: MAPK9 (human) (UniProt P45984)
[24] = biological target: MAPKAPK5 (human) (UniProt Q8IW41)
[25] = biological target: MARK1 (human) (UniProt Q9P0L2)
[26] = biological target: MARK4 (human) (UniProt Q96L34)
Chain of MARK4 (human) (Q96L34 whole entry, looked up): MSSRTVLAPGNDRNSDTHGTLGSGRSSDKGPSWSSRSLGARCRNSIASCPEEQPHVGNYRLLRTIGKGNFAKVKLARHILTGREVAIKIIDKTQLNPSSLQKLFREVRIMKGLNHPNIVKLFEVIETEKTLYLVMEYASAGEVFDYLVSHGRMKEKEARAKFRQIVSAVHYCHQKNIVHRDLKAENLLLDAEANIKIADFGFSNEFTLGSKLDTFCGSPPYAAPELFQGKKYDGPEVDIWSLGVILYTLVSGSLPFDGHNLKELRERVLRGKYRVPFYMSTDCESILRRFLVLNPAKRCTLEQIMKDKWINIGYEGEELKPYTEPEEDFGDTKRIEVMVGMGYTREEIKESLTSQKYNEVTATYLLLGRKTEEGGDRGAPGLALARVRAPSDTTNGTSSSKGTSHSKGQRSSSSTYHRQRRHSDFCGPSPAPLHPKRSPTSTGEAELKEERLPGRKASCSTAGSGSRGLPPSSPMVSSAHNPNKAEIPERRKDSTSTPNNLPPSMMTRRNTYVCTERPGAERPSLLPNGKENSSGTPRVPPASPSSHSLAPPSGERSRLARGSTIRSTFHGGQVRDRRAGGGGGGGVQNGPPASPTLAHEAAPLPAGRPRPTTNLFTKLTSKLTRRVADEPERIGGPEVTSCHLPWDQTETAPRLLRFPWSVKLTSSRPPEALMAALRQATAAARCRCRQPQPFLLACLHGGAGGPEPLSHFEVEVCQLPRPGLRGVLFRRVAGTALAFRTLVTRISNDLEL

[27] = biological target: MST4 (human) (UniProt Q9P289)
[28] = biological target: MUSK (human) (UniProt O15146)
[29] = biological target: MYLK (human) (UniProt Q15746)
Chain of MYLK (human) (Q15746 whole entry, looked up): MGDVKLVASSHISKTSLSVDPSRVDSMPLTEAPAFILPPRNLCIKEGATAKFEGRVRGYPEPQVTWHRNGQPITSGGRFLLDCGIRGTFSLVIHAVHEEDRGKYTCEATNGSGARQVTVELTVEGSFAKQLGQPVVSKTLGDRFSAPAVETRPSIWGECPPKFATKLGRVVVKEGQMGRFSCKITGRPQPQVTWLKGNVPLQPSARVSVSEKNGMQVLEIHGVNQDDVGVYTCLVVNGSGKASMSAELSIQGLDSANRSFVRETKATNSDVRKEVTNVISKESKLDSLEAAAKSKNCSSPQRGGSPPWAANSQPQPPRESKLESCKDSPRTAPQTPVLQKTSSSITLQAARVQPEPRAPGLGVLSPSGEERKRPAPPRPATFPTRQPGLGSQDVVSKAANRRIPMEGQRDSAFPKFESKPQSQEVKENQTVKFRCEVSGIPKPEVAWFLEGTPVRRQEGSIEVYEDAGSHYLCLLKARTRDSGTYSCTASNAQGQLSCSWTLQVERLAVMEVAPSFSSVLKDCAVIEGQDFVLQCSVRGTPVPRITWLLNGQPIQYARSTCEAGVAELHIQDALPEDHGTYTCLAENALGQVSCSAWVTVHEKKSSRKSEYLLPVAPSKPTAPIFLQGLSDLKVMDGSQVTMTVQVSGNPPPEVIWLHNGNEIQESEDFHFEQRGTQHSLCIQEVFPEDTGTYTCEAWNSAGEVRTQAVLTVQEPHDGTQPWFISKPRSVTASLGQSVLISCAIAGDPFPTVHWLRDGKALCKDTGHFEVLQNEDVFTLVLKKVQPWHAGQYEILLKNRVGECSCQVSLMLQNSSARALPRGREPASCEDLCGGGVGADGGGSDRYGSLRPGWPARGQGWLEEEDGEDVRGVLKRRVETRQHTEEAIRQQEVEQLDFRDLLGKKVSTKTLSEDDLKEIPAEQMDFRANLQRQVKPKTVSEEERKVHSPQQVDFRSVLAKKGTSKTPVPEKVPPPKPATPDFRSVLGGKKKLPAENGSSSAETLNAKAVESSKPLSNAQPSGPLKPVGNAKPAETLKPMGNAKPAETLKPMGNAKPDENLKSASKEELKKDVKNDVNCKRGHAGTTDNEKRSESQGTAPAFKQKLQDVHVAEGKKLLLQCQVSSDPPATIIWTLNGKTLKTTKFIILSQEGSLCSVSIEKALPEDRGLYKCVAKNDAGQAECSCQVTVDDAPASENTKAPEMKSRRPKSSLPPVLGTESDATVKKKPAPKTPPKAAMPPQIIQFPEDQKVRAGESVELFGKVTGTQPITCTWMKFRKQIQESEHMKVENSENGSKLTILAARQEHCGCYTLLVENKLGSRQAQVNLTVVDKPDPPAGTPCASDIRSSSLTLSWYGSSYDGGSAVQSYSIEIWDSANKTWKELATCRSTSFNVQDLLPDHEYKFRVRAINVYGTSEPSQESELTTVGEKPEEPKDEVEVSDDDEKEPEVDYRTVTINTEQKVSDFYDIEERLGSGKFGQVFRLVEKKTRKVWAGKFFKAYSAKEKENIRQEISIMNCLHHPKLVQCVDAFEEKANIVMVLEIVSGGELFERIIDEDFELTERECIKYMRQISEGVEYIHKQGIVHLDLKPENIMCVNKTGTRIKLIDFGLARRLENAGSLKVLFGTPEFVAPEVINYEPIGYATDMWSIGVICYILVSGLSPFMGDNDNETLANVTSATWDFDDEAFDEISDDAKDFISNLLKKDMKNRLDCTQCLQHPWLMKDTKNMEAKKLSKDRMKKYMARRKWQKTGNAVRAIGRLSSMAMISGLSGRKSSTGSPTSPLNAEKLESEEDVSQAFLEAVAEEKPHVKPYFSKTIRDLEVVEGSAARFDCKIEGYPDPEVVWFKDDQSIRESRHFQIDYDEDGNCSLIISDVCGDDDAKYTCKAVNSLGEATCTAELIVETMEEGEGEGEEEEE

[30] = biological target: MYLK4 (human) (UniProt Q86YV6)
Chain of MYLK4 (human) (Q86YV6 whole entry, looked up): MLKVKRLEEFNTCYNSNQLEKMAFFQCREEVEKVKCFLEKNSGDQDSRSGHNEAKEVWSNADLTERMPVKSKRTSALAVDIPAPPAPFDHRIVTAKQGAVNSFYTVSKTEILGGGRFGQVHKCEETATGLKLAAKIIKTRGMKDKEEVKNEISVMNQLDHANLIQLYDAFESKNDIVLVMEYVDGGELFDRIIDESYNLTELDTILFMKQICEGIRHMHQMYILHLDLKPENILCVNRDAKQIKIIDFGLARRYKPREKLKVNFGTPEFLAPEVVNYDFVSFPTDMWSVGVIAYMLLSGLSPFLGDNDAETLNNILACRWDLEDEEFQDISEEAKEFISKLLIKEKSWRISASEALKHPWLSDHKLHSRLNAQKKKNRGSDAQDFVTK

[31] = biological target: NEK4 (human) (UniProt P51957)
[32] = biological target: NLK (human) (UniProt Q9UBE8)
[33] = biological target: PAK2 (human) (UniProt Q13177)
Chain of PAK2 (human) (Q13177 whole entry, looked up): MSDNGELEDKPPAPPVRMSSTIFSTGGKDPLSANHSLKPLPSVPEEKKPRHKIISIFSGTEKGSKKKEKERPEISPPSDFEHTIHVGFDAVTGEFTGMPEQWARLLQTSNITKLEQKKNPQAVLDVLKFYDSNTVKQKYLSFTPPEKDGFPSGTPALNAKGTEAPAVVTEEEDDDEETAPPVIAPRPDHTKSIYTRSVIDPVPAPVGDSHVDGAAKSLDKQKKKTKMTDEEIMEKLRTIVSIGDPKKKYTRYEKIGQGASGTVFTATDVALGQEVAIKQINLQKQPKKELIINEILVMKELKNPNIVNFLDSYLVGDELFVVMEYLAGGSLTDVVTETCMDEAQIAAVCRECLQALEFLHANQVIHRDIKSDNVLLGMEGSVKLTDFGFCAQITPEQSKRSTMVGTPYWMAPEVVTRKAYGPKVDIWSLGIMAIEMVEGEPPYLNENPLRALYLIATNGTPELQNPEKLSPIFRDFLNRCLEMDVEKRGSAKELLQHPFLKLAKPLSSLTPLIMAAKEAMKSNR

[34] = test system: PIK3CA (human), P42336 [C420R]
[35] = biological target: PIP5K1C (human) (UniProt O60331)
[36] = biological target: PRKACA (human) (UniProt P17612)
[37] = biological target: PRKG1 (human) (UniProt Q13976)
[38] = biological target: RPS6KA2 KD1 (human) (UniProt Q15349)
[39] = biological target: TEC (human) (UniProt P42680)
[40] = biological target: TNK2 (human) (UniProt Q07912)
Chain of TNK2 (human) (Q07912 whole entry, looked up): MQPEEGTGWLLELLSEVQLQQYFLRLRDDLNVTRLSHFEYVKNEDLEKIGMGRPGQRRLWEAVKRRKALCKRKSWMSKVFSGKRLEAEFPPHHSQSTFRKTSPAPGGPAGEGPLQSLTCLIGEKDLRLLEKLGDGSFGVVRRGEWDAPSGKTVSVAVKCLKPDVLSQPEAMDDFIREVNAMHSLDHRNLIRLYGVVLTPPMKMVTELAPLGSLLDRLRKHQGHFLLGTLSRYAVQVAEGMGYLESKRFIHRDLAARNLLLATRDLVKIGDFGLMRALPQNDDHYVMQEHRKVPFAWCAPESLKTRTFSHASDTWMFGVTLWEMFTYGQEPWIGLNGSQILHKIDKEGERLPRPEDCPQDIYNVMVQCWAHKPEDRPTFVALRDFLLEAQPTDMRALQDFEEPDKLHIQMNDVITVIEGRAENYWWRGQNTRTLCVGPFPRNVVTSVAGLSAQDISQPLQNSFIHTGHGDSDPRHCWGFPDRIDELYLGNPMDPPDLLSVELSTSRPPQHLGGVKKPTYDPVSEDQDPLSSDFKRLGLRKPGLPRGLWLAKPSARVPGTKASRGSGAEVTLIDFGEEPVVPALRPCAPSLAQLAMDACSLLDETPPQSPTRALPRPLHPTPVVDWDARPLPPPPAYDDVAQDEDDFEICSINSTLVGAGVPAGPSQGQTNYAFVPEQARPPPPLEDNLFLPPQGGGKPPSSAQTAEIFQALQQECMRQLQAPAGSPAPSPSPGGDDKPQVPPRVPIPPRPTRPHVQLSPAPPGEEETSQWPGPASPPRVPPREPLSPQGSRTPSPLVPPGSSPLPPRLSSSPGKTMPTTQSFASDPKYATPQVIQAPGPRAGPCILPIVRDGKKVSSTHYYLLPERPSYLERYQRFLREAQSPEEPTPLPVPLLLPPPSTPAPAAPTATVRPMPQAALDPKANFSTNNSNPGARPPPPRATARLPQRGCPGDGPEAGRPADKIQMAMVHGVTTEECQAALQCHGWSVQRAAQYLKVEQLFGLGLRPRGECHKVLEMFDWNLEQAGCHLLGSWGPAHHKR

[41] = biological target: TYK2 JH1 catalytic (human) (UniProt P29597)

Chain of AKT1 (human) (P31749 whole entry, looked up): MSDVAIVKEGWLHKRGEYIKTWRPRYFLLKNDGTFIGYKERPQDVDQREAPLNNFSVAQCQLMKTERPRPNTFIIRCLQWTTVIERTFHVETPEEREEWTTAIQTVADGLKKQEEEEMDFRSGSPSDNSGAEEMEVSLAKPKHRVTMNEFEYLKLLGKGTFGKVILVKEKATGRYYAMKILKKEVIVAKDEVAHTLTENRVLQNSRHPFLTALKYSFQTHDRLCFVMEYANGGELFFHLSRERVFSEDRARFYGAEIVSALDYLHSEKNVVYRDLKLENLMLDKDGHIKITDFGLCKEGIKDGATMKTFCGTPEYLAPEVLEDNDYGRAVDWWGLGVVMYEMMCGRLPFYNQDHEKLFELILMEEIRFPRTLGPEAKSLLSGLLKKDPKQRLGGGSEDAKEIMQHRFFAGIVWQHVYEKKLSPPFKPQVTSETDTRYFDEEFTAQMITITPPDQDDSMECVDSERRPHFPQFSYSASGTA

Question: Which kinase still bound, per cent of control [1] does the source give for `COC(=O)Nc1ccc(-c2nc(N3CCOCC3)c3cnn(C4CCN(C(=O)OC)CC4)c3n2)cc1` here?
Answer: 100%

Question: What about the kinase still bound, per cent of control [2] of the same compound?
Answer: 82%

Question: What about the kinase still bound, per cent of control [3] of the same compound?
Answer: 85%

Question: And the kinase still bound, per cent of control [4]?
Answer: 100%

Question: What about the kinase still bound, per cent of control [5] of the same compound?
Answer: 84%

Question: What about the per cent of control [6] of the same compound?
Answer: 100%

Question: And the per cent of control [7]?
Answer: 100%

Question: And the kinase still bound, per cent of control [8]?
Answer: 100%

Question: And the kinase still bound, per cent of control [9]?
Answer: 88%

Question: What about the kinase still bound, per cent of control [10] of the same compound?
Answer: 82%

Question: And the kinase still bound, per cent of control [11]?
Answer: 100%

Question: And the kinase still bound, per cent of control [12]?
Answer: 100%

Question: And the kinase still bound, per cent of control [13]?
Answer: 100%

Question: And the kinase still bound, per cent of control [14]?
Answer: 92%

Question: And the kinase still bound, per cent of control [15]?
Answer: 100%

Question: What about the kinase still bound, per cent of control [16] of the same compound?
Answer: 100%

Question: And the kinase still bound, per cent of control [17]?
Answer: 74%

Question: And the kinase still bound, per cent of control [18]?
Answer: 100%

Question: And the kinase still bound, per cent of control [19]?
Answer: 94%

Question: And the kinase still bound, per cent of control [20]?
Answer: 100%

Question: And the kinase still bound, per cent of control [21]?
Answer: 80%

Question: What about the kinase still bound, per cent of control [22] of the same compound?
Answer: 0%

Question: And the kinase still bound, per cent of control [23]?
Answer: 100%

Question: What about the kinase still bound, per cent of control [24] of the same compound?
Answer: 100%

Question: And the kinase still bound, per cent of control [25]?
Answer: 100%

Question: And the kinase still bound, per cent of control [26]?
Answer: 96%

Question: And the kinase still bound, per cent of control [27]?
Answer: 80%

Question: What about the kinase still bound, per cent of control [28] of the same compound?
Answer: 100%

Question: And the per cent of control [29]?
Answer: 81%

Question: What about the kinase still bound, per cent of control [30] of the same compound?
Answer: 99%

Question: What about the kinase still bound, per cent of control [31] of the same compound?
Answer: 90%

Question: And the kinase still bound, per cent of control [32]?
Answer: 99%

Question: What about the kinase still bound, per cent of control [33] of the same compound?
Answer: 91%

Question: And the kinase still bound, per cent of control [34]?
Answer: 3%

Question: And the kinase still bound, per cent of control [35]?
Answer: 100%

Question: And the per cent of control [36]?
Answer: 100%

Question: And the kinase still bound, per cent of control [37]?
Answer: 100%

Question: And the kinase still bound, per cent of control [38]?
Answer: 100%

Question: What about the kinase still bound, per cent of control [39] of the same compound?
Answer: 96%

Question: What about the kinase still bound, per cent of control [40] of the same compound?
Answer: 100%

Question: And the kinase still bound, per cent of control [41]?
Answer: 100%

Question: For `CC(C)n1nc(-c2cc3cc(O)ccc3[nH]2)c2c(N)ncnc21`, which kinase still bound, per cent of control [1] is on record?
Answer: 2%

Question: What about the kinase still bound, per cent of control [2] of the same compound?
Answer: 100%

Question: What about the kinase still bound, per cent of control [3] of the same compound?
Answer: 100%

Question: And the kinase still bound, per cent of control [4]?
Answer: 49%

Question: What about the kinase still bound, per cent of control [5] of the same compound?
Answer: 30%

Question: What about the per cent of control [6] of the same compound?
Answer: 57%

Question: What about the per cent of control [7] of the same compound?
Answer: 43%

Question: What about the kinase still bound, per cent of control [8] of the same compound?
Answer: 0.55%

Question: And the kinase still bound, per cent of control [9]?
Answer: 27%

Question: What about the kinase still bound, per cent of control [10] of the same compound?
Answer: 1.4%

Question: What about the kinase still bound, per cent of control [12] of the same compound?
Answer: 29%

Question: What about the kinase still bound, per cent of control [13] of the same compound?
Answer: 7%

Question: What about the kinase still bound, per cent of control [14] of the same compound?
Answer: 0.3%

Question: What about the kinase still bound, per cent of control [15] of the same compound?
Answer: 16%

Question: And the kinase still bound, per cent of control [16]?
Answer: 83%

Question: And the kinase still bound, per cent of control [17]?
Answer: 0.2%

Question: What about the kinase still bound, per cent of control [18] of the same compound?
Answer: 55%

Question: What about the kinase still bound, per cent of control [19] of the same compound?
Answer: 45%

Question: And the kinase still bound, per cent of control [20]?
Answer: 100%

Question: What about the kinase still bound, per cent of control [21] of the same compound?
Answer: 100%

Question: And the kinase still bound, per cent of control [22]?
Answer: 97%

Question: And the kinase still bound, per cent of control [24]?
Answer: 86%

Question: And the kinase still bound, per cent of control [25]?
Answer: 81%

Question: And the kinase still bound, per cent of control [26]?
Answer: 82%

Question: And the kinase still bound, per cent of control [27]?
Answer: 31%

Question: What about the kinase still bound, per cent of control [28] of the same compound?
Answer: 100%

Question: And the per cent of control [29]?
Answer: 0.9%

Question: What about the kinase still bound, per cent of control [30] of the same compound?
Answer: 43%

Question: What about the kinase still bound, per cent of control [31] of the same compound?
Answer: 90%

Question: And the kinase still bound, per cent of control [32]?
Answer: 10%

Question: What about the kinase still bound, per cent of control [33] of the same compound?
Answer: 31%

Question: What about the kinase still bound, per cent of control [35] of the same compound?
Answer: 9.8%

Question: And the per cent of control [36]?
Answer: 47%

Question: What about the kinase still bound, per cent of control [37] of the same compound?
Answer: 100%

Question: What about the kinase still bound, per cent of control [38] of the same compound?
Answer: 48%

Question: What about the kinase still bound, per cent of control [39] of the same compound?
Answer: 100%

Question: What about the kinase still bound, per cent of control [40] of the same compound?
Answer: 48%

Question: And the kinase still bound, per cent of control [41]?
Answer: 8.2%

Question: What does the source list for `COc1ccc(-c2ccc3c(N4CCOCC4)nc(N4C[C@@H](C)O[C@@H](C)C4)nc3n2)cc1CO`?
Answer: kinase still bound, per cent of control [1]: 100%; kinase still bound, per cent of control [2]: 88%; kinase still bound, per cent of control [3]: 80%; kinase still bound, per cent of control [4]: 100%; kinase still bound, per cent of control [5]: 64%; per cent of control [6]: 80%; per cent of control [7]: 100%; kinase still bound, per cent of control [8]: 86%; kinase still bound, per cent of control [9]: 94%; kinase still bound, per cent of control [10]: 63%; kinase still bound, per cent of control [11]: 100%; kinase still bound, per cent of control [12]: 94%; kinase still bound, per cent of control [13]: 86%; kinase still bound, per cent of control [14]: 100%; kinase still bound, per cent of control [15]: 98%; kinase still bound, per cent of control [16]: 67%; kinase still bound, per cent of control [17]: 100%; kinase still bound, per cent of control [18]: 96%; kinase still bound, per cent of control [19]: 100%; kinase still bound, per cent of control [20]: 97%; kinase still bound, per cent of control [21]: 98%; kinase still bound, per cent of control [22]: 71%; kinase still bound, per cent of control [23]: 76%; kinase still bound, per cent of control [24]: 77%; kinase still bound, per cent of control [25]: 100%; kinase still bound, per cent of control [26]: 84%; kinase still bound, per cent of control [27]: 100%; kinase still bound, per cent of control [28]: 100%; per cent of control [29]: 57%; kinase still bound, per cent of control [30]: 92%; kinase still bound, per cent of control [31]: 76%; kinase still bound, per cent of control [32]: 96%; kinase still bound, per cent of control [33]: 91%; kinase still bound, per cent of control [34]: 2.3%; kinase still bound, per cent of control [35]: 100%; per cent of control [36]: 100%; kinase still bound, per cent of control [37]: 91%; kinase still bound, per cent of control [38]: 100%; kinase still bound, per cent of control [39]: 92%; kinase still bound, per cent of control [40]: 100%; kinase still bound, per cent of control [41]: 100%
